Experimental data: the NIST ThermoML archive (doi:10.1021/je060271a)
“And” between values parts separate entries of the source, which are not always exact repeats. Equal values may be shown once.

Details: 283.14 K, Liquid, Vibrating tube method

CCCCCCC(=O)OCC(COC(=O)CCCCCC)(COC(=O)CCCCCC)COC(=O)CCCCCC [pentaerythritol tetraheptanoate]
Details | mass density
4385.6 kPa | 988.4 kg/m3
4385.7 kPa | 988.4 kg/m3 and 988.5 kg/m3
4385.8 kPa | 988.4 kg/m3
4385.9 kPa | 988.3 kg/m3 and 988.4 kg/m3 and 988.5 kg/m3
4386 kPa | 988.4 kg/m3 and 988.3 kg/m3
4386.1 kPa | 988.5 kg/m3 and 988.4 kg/m3 and 988.3 kg/m3
4386.2 kPa | 988.4 kg/m3
4386.5 kPa | 988.5 kg/m3
4386.7 kPa | 988.4 kg/m3
4387 kPa | 988.3 kg/m3 and 988.4 kg/m3
4387.4 kPa | 988.4 kg/m3
4388.1 kPa | 988.3 kg/m3
4388.6 kPa | 988.5 kg/m3
4392.2 kPa | 988.4 kg/m3
4392.3 kPa | 988.5 kg/m3
4393.3 kPa | 988.3 kg/m3
4394 kPa | 988.5 kg/m3
4394.1 kPa | 988.5 kg/m3
4394.5 kPa | 988.4 kg/m3
4394.7 kPa | 988.4 kg/m3
4395.2 kPa | 988.5 kg/m3 and 988.4 kg/m3
4395.7 kPa | 988.4 kg/m3
4396 kPa | 988.4 kg/m3
4396.2 kPa | 988.5 kg/m3
4396.6 kPa | 988.4 kg/m3
4401.3 kPa | 988.5 kg/m3
4404.8 kPa | 988.5 kg/m3
4409.8 kPa | 988.5 kg/m3
4413.5 kPa | 988.4 kg/m3
4417.1 kPa | 988.4 kg/m3
4421.1 kPa | 988.4 kg/m3
4425.8 kPa | 988.5 kg/m3
4429.6 kPa | 988.5 kg/m3
4433.4 kPa | 988.4 kg/m3
4437.9 kPa | 988.4 kg/m3
4441.9 kPa | 988.6 kg/m3
4445.5 kPa | 988.5 kg/m3
4450.3 kPa | 988.4 kg/m3
4452.1 kPa | 988.5 kg/m3
4456.8 kPa | 988.4 kg/m3
4460.9 kPa | 988.4 kg/m3
4464.4 kPa | 988.4 kg/m3
4469.4 kPa | 988.4 kg/m3
4473.1 kPa | 988.5 kg/m3
4476.9 kPa | 988.5 kg/m3
4480.5 kPa | 988.4 kg/m3
4485.5 kPa | 988.4 kg/m3
4489.5 kPa | 988.4 kg/m3
4493.3 kPa | 988.5 kg/m3
4498.2 kPa | 988.4 kg/m3
4502.1 kPa | 988.4 kg/m3
4505.9 kPa | 988.5 kg/m3
4509.9 kPa | 988.5 kg/m3
4513.7 kPa | 988.6 kg/m3
4518.2 kPa | 988.4 kg/m3
4521.7 kPa | 988.5 kg/m3
4525.7 kPa | 988.5 kg/m3
4529.3 kPa | 988.5 kg/m3
4533.1 kPa | 988.5 kg/m3
4539.2 kPa | 988.5 kg/m3
4548.9 kPa | 988.4 kg/m3
4556.8 kPa | 988.5 kg/m3
4564.8 kPa | 988.5 kg/m3
4572.9 kPa | 988.5 kg/m3
4583.2 kPa | 988.6 kg/m3
4591.3 kPa | 988.5 kg/m3
4599.9 kPa | 988.5 kg/m3
4607.7 kPa | 988.6 kg/m3
4617.4 kPa | 988.5 kg/m3
4625.9 kPa | 988.5 kg/m3
4635.9 kPa | 988.4 kg/m3
4644.3 kPa | 988.5 kg/m3
4652.7 kPa | 988.5 kg/m3
4663.3 kPa | 988.5 kg/m3
4671.8 kPa | 988.5 kg/m3
4680.4 kPa | 988.5 kg/m3
4689.1 kPa | 988.6 kg/m3
4697.7 kPa | 988.5 kg/m3
4708.3 kPa | 988.6 kg/m3
4717 kPa | 988.6 kg/m3
4726.5 kPa | 988.6 kg/m3
4737 kPa | 988.7 kg/m3
4746.4 kPa | 988.9 kg/m3
4755 kPa | 988.6 kg/m3
4774.4 kPa | 988.7 kg/m3
4781.5 kPa | 988.6 kg/m3
4786.9 kPa | 988.6 kg/m3
4792.4 kPa | 988.5 kg/m3
4799.3 kPa | 988.6 kg/m3
4804.7 kPa | 988.7 kg/m3
4810.6 kPa | 988.6 kg/m3
4816.1 kPa | 988.7 kg/m3
4823 kPa | 988.6 kg/m3
4828.9 kPa | 988.7 kg/m3
4834.3 kPa | 988.7 kg/m3
4841.2 kPa | 988.6 kg/m3
4847.3 kPa | 988.7 kg/m3
4853.2 kPa | 988.7 kg/m3
4858.7 kPa | 988.6 kg/m3
4865.8 kPa | 988.6 kg/m3
4871.7 kPa | 988.8 kg/m3
4877.4 kPa | 988.7 kg/m3
4884.1 kPa | 988.6 kg/m3
4890 kPa | 988.7 kg/m3
4895.9 kPa | 988.8 kg/m3
4902.8 kPa | 988.7 kg/m3
4908.7 kPa | 988.8 kg/m3
4914.6 kPa | 988.7 kg/m3
4920.6 kPa | 988.8 kg/m3
4927.9 kPa | 988.7 kg/m3
4934 kPa | 988.7 kg/m3
4940 kPa | 988.7 kg/m3
4946.3 kPa | 988.7 kg/m3
4953 kPa | 988.7 kg/m3
4959.8 kPa | 988.6 kg/m3
4965.7 kPa | 988.6 kg/m3
4971.9 kPa | 988.7 kg/m3
4978 kPa | 988.8 kg/m3
4985.2 kPa | 988.8 kg/m3
4991.3 kPa | 988.8 kg/m3
4997.3 kPa | 988.9 kg/m3
5004.4 kPa | 988.8 kg/m3
5010.7 kPa | 988.7 kg/m3
5016.9 kPa | 988.8 kg/m3
5023.1 kPa | 988.7 kg/m3
5031.1 kPa | 988.7 kg/m3
5036.4 kPa | 988.8 kg/m3
5043.4 kPa | 988.8 kg/m3
5049.8 kPa | 988.8 kg/m3
5057 kPa | 988.9 kg/m3
5063.3 kPa | 988.7 kg/m3
5069.3 kPa | 988.8 kg/m3
5075.9 kPa | 988.8 kg/m3
5083.3 kPa | 988.9 kg/m3
5089.6 kPa | 988.9 kg/m3
5095.8 kPa | 988.8 kg/m3
5103.7 kPa | 988.7 kg/m3
5110 kPa | 988.8 kg/m3
5116.5 kPa | 988.9 kg/m3
5122.9 kPa | 988.8 kg/m3
5129 kPa | 988.9 kg/m3
5137 kPa | 988.9 kg/m3
5192 kPa | 988.9 kg/m3
5198.7 kPa | 988.9 kg/m3
5206.7 kPa | 989 kg/m3
5213.1 kPa | 989 kg/m3
5219.7 kPa | 988.8 kg/m3
5227.4 kPa | 988.8 kg/m3
5234.2 kPa | 988.9 kg/m3
5241.1 kPa | 988.9 kg/m3
5247.7 kPa | 988.9 kg/m3
5255.5 kPa | 988.9 kg/m3
5262.2 kPa | 988.9 kg/m3
5269 kPa | 988.9 kg/m3
5277.1 kPa | 989 kg/m3
5284.2 kPa | 988.9 kg/m3
5291.1 kPa | 988.9 kg/m3
5298.2 kPa | 988.9 kg/m3
5306.7 kPa | 988.9 kg/m3
5313.1 kPa | 988.9 kg/m3
5319.7 kPa | 989 kg/m3
5326.9 kPa | 988.9 kg/m3
5335.6 kPa | 988.9 kg/m3
5342.3 kPa | 988.9 kg/m3
5349.4 kPa | 988.9 kg/m3
5357.5 kPa | 989 kg/m3
5365 kPa | 988.9 kg/m3
5371.7 kPa | 989 kg/m3
5380.2 kPa | 989 kg/m3
5387.5 kPa | 989 kg/m3
5394.7 kPa | 988.9 kg/m3
5401.6 kPa | 989.1 kg/m3
5410.1 kPa | 989 kg/m3
5417.6 kPa | 989 kg/m3
5424.8 kPa | 988.9 kg/m3
5433.5 kPa | 989 kg/m3
5440.6 kPa | 989.1 kg/m3
5447.7 kPa | 989.1 kg/m3
5455.3 kPa | 989 kg/m3
5463.1 kPa | 989.1 kg/m3
5471.2 kPa | 989.1 kg/m3
5478.6 kPa | 989 kg/m3
5485.9 kPa | 989.1 kg/m3
5494.7 kPa | 989.1 kg/m3
5502.5 kPa | 989.1 kg/m3
5509.9 kPa | 989 kg/m3
5517.5 kPa | 989.1 kg/m3
5526.7 kPa | 989.1 kg/m3
5534 kPa | 989.2 kg/m3
5541.8 kPa | 989.2 kg/m3
5549 kPa | 989.1 kg/m3
5565.4 kPa | 989.1 kg/m3
5582.7 kPa | 989.1 kg/m3
5591.5 kPa | 989.2 kg/m3
5599.8 kPa | 989.1 kg/m3
5607.5 kPa | 989.2 kg/m3
5615.5 kPa | 989.2 kg/m3
5624.1 kPa | 989.1 kg/m3
5632.1 kPa | 989.2 kg/m3
5640 kPa | 989.1 kg/m3
5649.2 kPa | 989.2 kg/m3
5657 kPa | 989.3 kg/m3
5665.1 kPa | 989.1 kg/m3
5674.3 kPa | 989.1 kg/m3
5682.4 kPa | 989.1 kg/m3
5690.4 kPa | 989.2 kg/m3
5697.6 kPa | 989.2 kg/m3
5705.8 kPa | 989.1 kg/m3
5714.2 kPa | 989.3 kg/m3
5724.3 kPa | 989.1 kg/m3
5732.6 kPa | 989.2 kg/m3
5739.8 kPa | 989.3 kg/m3
5774.2 kPa | 989.2 kg/m3
5783.6 kPa | 989.3 kg/m3
5791.5 kPa | 989.2 kg/m3
5800 kPa | 989.2 kg/m3
5810.4 kPa | 989.3 kg/m3
5818.7 kPa | 989.3 kg/m3
5827 kPa | 989.3 kg/m3
5837 kPa | 989.3 kg/m3
5845 kPa | 989.2 kg/m3
5854.3 kPa | 989.2 kg/m3
5862.6 kPa | 989.3 kg/m3
5871.8 kPa | 989.2 kg/m3
